We go through twelve compounds from ChEMBL document CHEMBL3991601, “The target landscape of clinical kinase drugs” (Science, 2017).

Structures can show the parent of a compound that is named as a salt. The source made the active and inactive calls.

Assay [1] has as its target T1, Bifunctional phosphoribosylaminoimidazole carboxylase/phosphoribosylaminoimidazole succinocarboxamide synthetase (Homo sapiens, UniProt P22234).
T1 sequence (P22234 whole entry): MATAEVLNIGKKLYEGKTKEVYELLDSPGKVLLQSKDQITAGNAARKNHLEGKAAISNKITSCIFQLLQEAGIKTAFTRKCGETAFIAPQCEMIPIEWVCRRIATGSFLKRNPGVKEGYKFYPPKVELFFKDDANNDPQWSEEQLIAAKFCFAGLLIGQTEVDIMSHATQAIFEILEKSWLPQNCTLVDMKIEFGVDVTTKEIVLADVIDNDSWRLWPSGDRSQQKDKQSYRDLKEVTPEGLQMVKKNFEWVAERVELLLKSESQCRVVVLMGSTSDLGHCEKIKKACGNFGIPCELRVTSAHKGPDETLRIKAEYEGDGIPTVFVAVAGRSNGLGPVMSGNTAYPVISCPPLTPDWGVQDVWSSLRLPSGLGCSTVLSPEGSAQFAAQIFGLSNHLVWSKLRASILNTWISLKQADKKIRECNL

The target in assay [2] is RAC-gamma serine/threonine-protein kinase (Homo sapiens, UniProt Q9Y243).
Assay [3] has as its target Serine/threonine-protein kinase B-raf (Homo sapiens, UniProt P15056).
A further assay has as its target T2, Ephrin type-B receptor 3 (Homo sapiens, UniProt P54753).
T2 sequence (P54753 whole entry): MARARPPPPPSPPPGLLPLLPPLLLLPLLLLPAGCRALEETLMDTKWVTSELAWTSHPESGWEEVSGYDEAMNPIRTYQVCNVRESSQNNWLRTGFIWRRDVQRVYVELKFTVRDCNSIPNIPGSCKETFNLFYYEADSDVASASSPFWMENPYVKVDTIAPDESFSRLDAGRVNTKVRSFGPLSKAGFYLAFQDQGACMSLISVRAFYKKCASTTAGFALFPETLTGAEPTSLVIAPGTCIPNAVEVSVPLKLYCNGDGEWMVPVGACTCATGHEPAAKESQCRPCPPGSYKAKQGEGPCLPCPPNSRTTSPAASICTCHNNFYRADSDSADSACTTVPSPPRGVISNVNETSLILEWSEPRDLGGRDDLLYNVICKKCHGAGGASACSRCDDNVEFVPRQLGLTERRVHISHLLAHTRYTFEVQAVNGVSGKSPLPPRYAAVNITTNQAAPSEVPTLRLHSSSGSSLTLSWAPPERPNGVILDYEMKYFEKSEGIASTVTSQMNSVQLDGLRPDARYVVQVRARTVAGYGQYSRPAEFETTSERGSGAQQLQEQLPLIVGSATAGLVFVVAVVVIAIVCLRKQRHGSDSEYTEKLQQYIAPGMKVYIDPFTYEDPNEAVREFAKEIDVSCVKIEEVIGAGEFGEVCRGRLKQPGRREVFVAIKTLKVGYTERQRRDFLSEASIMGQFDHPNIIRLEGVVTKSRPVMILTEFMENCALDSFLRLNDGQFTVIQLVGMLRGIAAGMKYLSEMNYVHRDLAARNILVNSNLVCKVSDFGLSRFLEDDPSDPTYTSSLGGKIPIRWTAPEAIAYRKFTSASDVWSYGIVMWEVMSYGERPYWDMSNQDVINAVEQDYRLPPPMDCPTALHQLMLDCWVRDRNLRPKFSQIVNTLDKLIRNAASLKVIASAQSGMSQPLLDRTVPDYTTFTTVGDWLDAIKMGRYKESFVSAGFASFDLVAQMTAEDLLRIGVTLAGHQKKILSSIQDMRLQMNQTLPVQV

Assay [4] has as its target T3, Dual specificity mitogen-activated protein kinase kinase 3 (Homo sapiens, UniProt P46734).
T3 sequence (P46734 whole entry): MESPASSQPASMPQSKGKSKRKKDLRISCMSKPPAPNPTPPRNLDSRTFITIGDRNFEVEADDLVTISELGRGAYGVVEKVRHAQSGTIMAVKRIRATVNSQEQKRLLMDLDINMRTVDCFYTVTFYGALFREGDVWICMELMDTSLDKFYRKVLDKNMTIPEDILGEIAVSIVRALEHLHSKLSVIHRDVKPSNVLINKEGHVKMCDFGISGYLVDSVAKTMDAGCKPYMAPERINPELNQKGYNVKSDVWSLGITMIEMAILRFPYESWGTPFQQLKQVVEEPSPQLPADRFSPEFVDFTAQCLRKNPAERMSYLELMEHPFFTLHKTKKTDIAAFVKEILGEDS

Assay [5] addresses T4, Phosphatidylinositol 5-phosphate 4-kinase type-2 gamma (Homo sapiens, UniProt Q8TBX8).
T4 sequence (Q8TBX8 whole entry): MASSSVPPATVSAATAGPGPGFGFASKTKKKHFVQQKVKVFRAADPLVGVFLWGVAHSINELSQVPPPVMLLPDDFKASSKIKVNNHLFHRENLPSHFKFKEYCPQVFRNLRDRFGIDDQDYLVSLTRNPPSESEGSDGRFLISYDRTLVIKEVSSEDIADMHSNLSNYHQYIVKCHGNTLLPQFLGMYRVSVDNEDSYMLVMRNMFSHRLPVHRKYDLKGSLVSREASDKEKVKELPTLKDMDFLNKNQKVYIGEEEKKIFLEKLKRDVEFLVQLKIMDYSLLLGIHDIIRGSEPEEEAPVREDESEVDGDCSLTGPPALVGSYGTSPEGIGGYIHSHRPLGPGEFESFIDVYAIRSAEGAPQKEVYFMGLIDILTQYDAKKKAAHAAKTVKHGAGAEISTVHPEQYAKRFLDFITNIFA

Assay [6] addresses T5, Ras-related protein Rab-10 (Homo sapiens, UniProt P61026).
T5 sequence (P61026 whole entry): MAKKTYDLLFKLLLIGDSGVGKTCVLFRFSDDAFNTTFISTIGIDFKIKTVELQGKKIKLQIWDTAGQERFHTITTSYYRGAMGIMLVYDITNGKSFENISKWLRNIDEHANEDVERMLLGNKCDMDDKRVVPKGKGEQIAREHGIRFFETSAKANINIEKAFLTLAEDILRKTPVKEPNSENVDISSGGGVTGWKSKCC

Assay [7] addresses Ribosomal protein S6 kinase beta-1 (Homo sapiens, UniProt P23443).
The target of assay [8] is Structural maintenance of chromosomes protein 2 (Homo sapiens, UniProt O95347).
Note: in the data inactive means no Kd found up to 30 µM.

RAC-gamma serine/threonine-protein kinase, sequence (Q9Y243 whole entry): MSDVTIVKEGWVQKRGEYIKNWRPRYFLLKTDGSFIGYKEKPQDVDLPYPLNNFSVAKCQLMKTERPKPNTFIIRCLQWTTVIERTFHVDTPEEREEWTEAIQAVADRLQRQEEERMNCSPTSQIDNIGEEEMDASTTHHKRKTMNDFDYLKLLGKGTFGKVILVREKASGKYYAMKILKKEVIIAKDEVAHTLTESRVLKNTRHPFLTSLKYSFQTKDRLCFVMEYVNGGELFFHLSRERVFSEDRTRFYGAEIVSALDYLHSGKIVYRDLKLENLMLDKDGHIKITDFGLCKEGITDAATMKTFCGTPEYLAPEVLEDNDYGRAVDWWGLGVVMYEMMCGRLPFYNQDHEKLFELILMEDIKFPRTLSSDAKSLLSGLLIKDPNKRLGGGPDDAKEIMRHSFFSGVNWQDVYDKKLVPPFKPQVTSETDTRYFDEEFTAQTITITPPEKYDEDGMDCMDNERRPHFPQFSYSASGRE
Structural maintenance of chromosomes protein 2, sequence (O95347 whole entry): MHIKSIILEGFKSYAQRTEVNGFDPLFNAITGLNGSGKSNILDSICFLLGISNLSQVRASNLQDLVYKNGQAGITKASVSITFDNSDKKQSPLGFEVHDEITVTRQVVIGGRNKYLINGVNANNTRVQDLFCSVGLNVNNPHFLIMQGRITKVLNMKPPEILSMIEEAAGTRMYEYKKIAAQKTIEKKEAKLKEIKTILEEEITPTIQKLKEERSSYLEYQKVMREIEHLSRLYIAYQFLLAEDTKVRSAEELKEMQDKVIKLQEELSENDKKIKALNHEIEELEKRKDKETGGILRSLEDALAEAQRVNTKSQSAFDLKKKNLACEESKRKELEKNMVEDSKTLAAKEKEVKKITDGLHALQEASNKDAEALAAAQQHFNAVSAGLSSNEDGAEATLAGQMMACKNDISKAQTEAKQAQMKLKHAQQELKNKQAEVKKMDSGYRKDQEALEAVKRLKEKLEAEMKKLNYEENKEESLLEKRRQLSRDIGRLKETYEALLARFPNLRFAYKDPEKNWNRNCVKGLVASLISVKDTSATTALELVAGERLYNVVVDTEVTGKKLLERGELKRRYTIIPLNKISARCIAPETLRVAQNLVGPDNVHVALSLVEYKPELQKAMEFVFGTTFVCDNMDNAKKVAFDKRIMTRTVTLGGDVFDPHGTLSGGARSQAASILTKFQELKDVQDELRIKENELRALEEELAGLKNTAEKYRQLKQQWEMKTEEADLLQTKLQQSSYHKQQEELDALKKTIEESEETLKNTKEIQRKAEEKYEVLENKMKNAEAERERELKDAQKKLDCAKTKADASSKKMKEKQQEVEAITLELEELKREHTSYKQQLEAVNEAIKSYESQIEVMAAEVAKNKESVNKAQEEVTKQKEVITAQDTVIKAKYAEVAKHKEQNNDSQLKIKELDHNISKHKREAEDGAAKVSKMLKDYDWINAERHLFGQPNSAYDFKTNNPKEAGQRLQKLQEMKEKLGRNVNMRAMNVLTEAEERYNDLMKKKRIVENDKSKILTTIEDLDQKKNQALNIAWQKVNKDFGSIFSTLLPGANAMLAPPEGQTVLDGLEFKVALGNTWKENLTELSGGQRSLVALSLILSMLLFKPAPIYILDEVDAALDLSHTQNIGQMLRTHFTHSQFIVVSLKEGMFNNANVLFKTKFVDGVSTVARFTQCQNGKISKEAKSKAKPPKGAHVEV
Ribosomal protein S6 kinase beta-1, sequence (P23443 whole entry): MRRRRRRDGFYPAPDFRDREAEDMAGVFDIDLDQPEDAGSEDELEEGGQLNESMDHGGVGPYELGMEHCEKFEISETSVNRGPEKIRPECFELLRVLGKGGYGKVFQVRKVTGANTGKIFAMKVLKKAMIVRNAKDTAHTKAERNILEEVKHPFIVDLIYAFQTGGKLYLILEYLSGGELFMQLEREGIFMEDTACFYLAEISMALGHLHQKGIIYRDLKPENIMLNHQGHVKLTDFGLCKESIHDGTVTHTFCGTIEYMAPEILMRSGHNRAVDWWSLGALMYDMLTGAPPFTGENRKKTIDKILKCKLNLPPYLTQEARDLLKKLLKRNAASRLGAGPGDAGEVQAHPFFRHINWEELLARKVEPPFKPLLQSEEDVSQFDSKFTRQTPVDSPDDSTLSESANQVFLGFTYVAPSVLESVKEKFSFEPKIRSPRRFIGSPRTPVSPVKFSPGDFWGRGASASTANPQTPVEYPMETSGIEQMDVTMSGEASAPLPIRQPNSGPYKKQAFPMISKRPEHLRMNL
Serine/threonine-protein kinase B-raf, sequence (P15056 whole entry): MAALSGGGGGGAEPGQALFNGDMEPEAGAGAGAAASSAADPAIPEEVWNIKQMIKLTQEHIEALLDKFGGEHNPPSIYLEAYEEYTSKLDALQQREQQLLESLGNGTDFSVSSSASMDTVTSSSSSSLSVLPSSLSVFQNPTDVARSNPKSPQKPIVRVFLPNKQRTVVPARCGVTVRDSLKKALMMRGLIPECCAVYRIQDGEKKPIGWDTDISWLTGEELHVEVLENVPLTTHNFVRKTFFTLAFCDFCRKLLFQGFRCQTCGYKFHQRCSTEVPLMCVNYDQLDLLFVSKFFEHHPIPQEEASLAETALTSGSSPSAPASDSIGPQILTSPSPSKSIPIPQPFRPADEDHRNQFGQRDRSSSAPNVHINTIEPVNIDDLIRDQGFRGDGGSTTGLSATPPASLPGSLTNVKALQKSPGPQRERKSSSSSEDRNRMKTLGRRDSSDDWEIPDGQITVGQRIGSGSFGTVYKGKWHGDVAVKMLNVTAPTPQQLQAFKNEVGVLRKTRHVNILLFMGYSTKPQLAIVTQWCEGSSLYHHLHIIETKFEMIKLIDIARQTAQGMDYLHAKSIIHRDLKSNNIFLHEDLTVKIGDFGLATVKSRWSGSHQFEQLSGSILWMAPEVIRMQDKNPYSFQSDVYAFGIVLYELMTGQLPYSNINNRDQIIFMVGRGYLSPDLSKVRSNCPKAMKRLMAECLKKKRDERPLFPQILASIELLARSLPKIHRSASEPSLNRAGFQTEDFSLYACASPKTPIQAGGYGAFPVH

On to `Nc1ncnc2c1c(-c1cccc(OCc3ccccc3)c1)cn2[C@H]1C[C@@H](CN2CCC2)C1` [AEW-541], for which the Kd (in assay [1]; in assay [2]; in assay [3]; on Ephrin type-B receptor 3; in assay [4]; in assay [5]) was > 30 µM (inactive) each time. The Kd in assay [6], in assay [7] and in assay [8] was > 30 µM (inactive) throughout.

Consider `O=C(Nc1c[nH]nc1-c1nc2cc(CN3CCOCC3)ccc2[nH]1)NC1CC1` [AT-9283], for which the Kd (in [1]; in [2]; in assay [3]; on Ephrin type-B receptor 3; in assay [4]; in assay [5]) was > 30 µM (inactive) throughout. In addition, the Kd in [6] was > 30 µM (inactive); in [7], 0.117 µM (active); in [8], > 30 µM (inactive).

For the compound `C=CC(=O)Nc1cc2c(Nc3ccc(F)c(Cl)c3)ncnc2cc1C#CC(C)(C)N1CCN(C)CC1` [AV-412 FREE BASE], the Kd (in assay [1]; in assay [2]; in [3]; on Ephrin type-B receptor 3; in assay [4]; in assay [5]) was > 30 µM (inactive) throughout. In addition, the Kd in assay [6], in [7] and in [8] was > 30 µM (inactive) in each case.

Take `COc1cc([C@@H]2c3cc4c(cc3[C@H](O)[C@H]3COC(=O)[C@@H]23)OCO4)cc(OC)c1OC` [AXL-1717]: the Kd (in assay [1]; in [2]; in assay [3]; on Ephrin type-B receptor 3; in [4]; in [5]) was > 30 µM (inactive) each time. Moreover, the Kd in assay [6], in assay [7] and in assay [8] was > 30 µM (inactive) each time.

For `NC(=O)Nc1cc(-c2cccc(F)c2)sc1C(=O)N[C@H]1CCCNC1` [AZD-7762], the Kd (in assay [1]; in [2]; in assay [3]; at Ephrin type-B receptor 3; in assay [4]; in [5]) was > 30 µM (inactive) each time. Moreover, the Kd in assay [6], in assay [7] and in assay [8] was > 30 µM (inactive) each time.

On to `Cn1cnc2c(F)c(Nc3ccc(Br)cc3F)c(C(=O)NOCCO)cc21` [BINIMETINIB], for which the Kd (in assay [1]; in assay [2]; in assay [3]; at Ephrin type-B receptor 3; in assay [4]; in assay [5]) was > 30 µM (inactive) throughout. In addition, the Kd in assay [6], in assay [7] and in [8] was > 30 µM (inactive) each time.

With `CCn1c(C(=O)N(C2CC2)C2CC2)cc2c3c(ncn3C)c(Nc3cc(C)n(C)n3)nc21` [BMS-911543], the Kd (in assay [1]; in assay [2]; in assay [3]; at Ephrin type-B receptor 3; in assay [4]; in assay [5]) was > 30 µM (inactive) throughout. In addition, the Kd in assay [6], in assay [7] and in assay [8] was > 30 µM (inactive) each time.

As to `COc1cc2ncnc(Oc3cccc(NC(=O)Nc4cc(C(C)(C)C(F)(F)F)on4)c3)c2cc1OC` [CEP-32496], the Kd in assay [1] is > 30 µM (inactive); in assay [2] it was > 30 µM (inactive); in assay [3], 2.85 µM (active); on Ephrin type-B receptor 3 it was > 30 µM (inactive); in [4], > 30 µM (inactive); in assay [5] it was > 30 µM (inactive). In addition, the Kd in assay [6], in assay [7] and in assay [8] was > 30 µM (inactive) each time.

With `Cc1cc(Nc2ncc(Cl)c(Nc3ccccc3S(=O)(=O)C(C)C)n2)c(OC(C)C)cc1C1CCNCC1` [CERITINIB], the Kd (in assay [1]; in assay [2]; in assay [3]; at Ephrin type-B receptor 3; in [4]; in assay [5]) was > 30 µM (inactive) in each case. Also, the Kd in assay [6], in [7] and in assay [8] was > 30 µM (inactive) throughout.

Consider `COc1c(OCCCN2CCOCC2)ccc2c1N=C(NC(=O)c1cnc(N)nc1)N1CCN=C21` [COPANLISIB], for which the Kd (in assay [1]; in assay [2]; in assay [3]; on Ephrin type-B receptor 3; in assay [4]; in assay [5]) was > 30 µM (inactive) each time. For the same compound, the Kd in assay [6], in assay [7] and in [8] was > 30 µM (inactive) each time.

As to `C#Cc1cccc(Nc2ncnc3cc(OC)c(OCCCCCCC(=O)NO)cc23)c1` [CUDC-101], the Kd (in assay [1]; in [2]; in assay [3]; on Ephrin type-B receptor 3; in assay [4]; in assay [5]) was > 30 µM (inactive) each time. Moreover, the Kd in assay [6], in [7] and in assay [8] was > 30 µM (inactive) throughout.

`CCS(=O)(=O)N1CCN(c2ccc(Nc3ncc(C(N)=O)c(NC4CC4)n3)cc2)CC1` [Cerdulatinib Hydrochloride]: the Kd in [1] was > 30 µM (inactive); in assay [2] it was > 30 µM (inactive); in assay [3], > 30 µM (inactive); at Ephrin type-B receptor 3, > 30 µM (inactive); in assay [4] it was 1.48 µM (active); in [5], > 30 µM (inactive). Moreover, the Kd in assay [6], in assay [7] and in [8] was > 30 µM (inactive) in each case.
